Columns and labels:
Echinochloa spp. = assay: Paddy field treatment (Test Example 3); format: in vivo, Echinochloa crusgalli; details: paddy pot, submerged 4 cm, dropped on water surface 10th day after transplantation, 1 kg active ingredient per hectare, evaluated 21st day
Procedure, shortened: (§1)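 Index scoring of herbicidal effect and rice safety 21 days after treatment. The wettable powder, dosed at 1 kg a.i./ha, was dripped onto flooded pots (4 cm water) 10 days after transplanting two-leaf Koshihikari rice. Weed seeds had been sown into the puddled soil.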

[1] = test system: rice (Oryza sative, variety: Koshihikari); assay: Paddy field treatment (Test Example 3), crop; format: in vivo, Oryza sativa; details: transplanted rice two-leaf period, water surface treatment 10th day after transplantation, 1 kg active ingredient per hectare, evaluated 21st day, lower index = higher safety
Procedure, shortened: as §1

[2] = test system: wheat (Triticum aestivum); assay: Upland field foliage treatment (Test Example 1), crop; format: in vivo; details: foliage treatment 14th day after sowing, 1 kg active ingredient per hectare, evaluated 21st day, lower index = higher safety
Procedure, shortened: (§2)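 Scored on an index 21 days after treatment: a high value on weeds means more herbicidal effect, and a low value on crops means more crop safety. Treatment was a foliar spray of water-diluted wettable powder at 1 kg a.i./ha, applied to plants 14 days after sowing in upland soil.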

soybean (Glycine max) [3] = assay: as above; format: in vivo; details: foliage treatment 14th day after sowing, 1 kg active ingredient per hectare, evaluated 21st day, lower index = higher safety
Procedure, shortened: as §2

Stellaria media [4] = assay: Upland field foliage treatment (Test Example 1); format: in vivo; details: foliage treatment 14th day after sowing, wettable powder, 1 kg active ingredient per hectare, evaluated 21st day after application
Procedure, shortened: as §2

Setaria viridis [5] = assay: Upland field foliage treatment (Test Example 1); format: in vivo; details: foliage treatment 14th day after sowing, wettable powder, 1 kg active ingredient per hectare, evaluated 21st day after application
Procedure, shortened: as §2

Digitaria adscendens [6] = assay: Upland field foliage treatment (Test Example 1); format: in vivo; details: foliage treatment 14th day after sowing, wettable powder, 1 kg active ingredient per hectare, evaluated 21st day after application
Procedure, shortened: as §2

Chenopodium album [7] = assay: Upland field foliage treatment (Test Example 1); format: in vivo; details: foliage treatment 14th day after sowing, wettable powder, 1 kg active ingredient per hectare, evaluated 21st day after application
Procedure, shortened: as §2

Scirpus juncoides = assay: Paddy field treatment (Test Example 3); format: in vivo; details: paddy pot, submerged 4 cm, dropped on water surface 10th day after transplantation, 1 kg active ingredient per hectare, evaluated 21st day
Procedure, shortened: as §1

Ammannia multiflora = assay: Paddy field treatment (Test Example 3); format: in vivo; details: paddy pot, submerged 4 cm, dropped on water surface 10th day after transplantation, 1 kg active ingredient per hectare, evaluated 21st day
Procedure, shortened: as §1

Monochoria vaginalis = assay: Paddy field treatment (Test Example 3); format: in vivo; details: paddy pot, submerged 4 cm, dropped on water surface 10th day after transplantation, 1 kg active ingredient per hectare, evaluated 21st day
Procedure, shortened: as §1

Stellaria media [8] = assay: Upland soil treatment (Test Example 2); format: in vivo; details: soil surface treatment next day after sowing, wettable powder, 1 kg active ingredient per hectare, evaluated 21st day after application
Procedure, shortened: (§3)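 Scores were assigned 21 days after treatment on an index where higher means stronger weed control and, for crops, lower means greater safety. A wettable-powder formulation at 1 kg a.i./ha was applied to the soil surface one day after sowing seeds under about 1 cm of upland soil.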

Setaria viridis [9] = assay: Upland soil treatment (Test Example 2); format: in vivo; details: soil surface treatment next day after sowing, wettable powder, 1 kg active ingredient per hectare, evaluated 21st day after application
Procedure, shortened: as §3

Digitaria adscendens [10] = assay: Upland soil treatment (Test Example 2); format: in vivo; details: soil surface treatment next day after sowing, wettable powder, 1 kg active ingredient per hectare, evaluated 21st day after application
Procedure, shortened: as §3

Chenopodium album [11] = assay: Upland soil treatment (Test Example 2); format: in vivo; details: soil surface treatment next day after sowing, wettable powder, 1 kg active ingredient per hectare, evaluated 21st day after application
Procedure, shortened: as §3

[12] = test system: wheat (Triticum aestivum); assay: Upland soil treatment (Test Example 2), crop; format: in vivo; details: soil surface treatment next day after sowing, 1 kg active ingredient per hectare, evaluated 21st day, lower index = higher safety
Procedure, shortened: as §3

soybean (Glycine max) [13] = assay: Upland soil treatment (Test Example 2), crop; format: in vivo; details: soil surface treatment next day after sowing, 1 kg active ingredient per hectare, evaluated 21st day, lower index = higher safety
Procedure, shortened: as §3

## COC=C(Cn1nc(-c2ccc(Cl)c(Cl)c2)c(Cl)c1C)C(=O)OC [Compound 24]
Echinochloa spp.
  Herbicidal activity Echinochloa spp.: 4 (herbicidal effect of not less than 70% by weight and less than 90% by weight)
[1]
  Herbicidal activity Oryza sativa: 0 (herbicidal effect of not less than 0% by weight and less than 10% by weight)
[2]
  Herbicidal activity Triticum aestivum: 0 (herbicidal effect of not less than 0% by weight and less than 10% by weight)
Soybean (Glycine max) [3]
  Herbicidal activity Glycine max: 0 (herbicidal effect of not less than 0% by weight and less than 10% by weight)
Stellaria media [4]
  Herbicidal activity Stellaria media: 4 (herbicidal effect of not less than 70% by weight and less than 90% by weight)
Setaria viridis [5]
  Herbicidal activity Setaria viridis: 4 (herbicidal effect of not less than 70% by weight and less than 90% by weight)
Digitaria adscendens [6]
  Herbicidal activity Digitaria adscendens: 4 (herbicidal effect of not less than 70% by weight and less than 90% by weight)
Chenopodium album [7]
  Herbicidal activity Chenopodium album: 4 (herbicidal effect of not less than 70% by weight and less than 90% by weight)
Scirpus juncoides
  Herbicidal activity Scirpus juncoides: 3 (herbicidal effect of not less than 50% by weight and less than 70% by weight)
Ammannia multiflora
  Herbicidal activity Ammannia multiflora: 3 (herbicidal effect of not less than 50% by weight and less than 70% by weight)
Monochoria vaginalis
  Herbicidal activity Monochoria vaginalis: 3 (herbicidal effect of not less than 50% by weight and less than 70% by weight)
Stellaria media [8]
  Herbicidal activity Stellaria media: 4 (herbicidal effect of not less than 70% by weight and less than 90% by weight)
Setaria viridis [9]
  Herbicidal activity Setaria viridis: 4 (herbicidal effect of not less than 70% by weight and less than 90% by weight)
Digitaria adscendens [10]
  Herbicidal activity Digitaria adscendens: 4 (herbicidal effect of not less than 70% by weight and less than 90% by weight)
Chenopodium album [11]
  Herbicidal activity Chenopodium album: 4 (herbicidal effect of not less than 70% by weight and less than 90% by weight)
[12]
  Herbicidal activity Triticum aestivum: 0 (herbicidal effect of not less than 0% by weight and less than 10% by weight)
Soybean (Glycine max) [13]
  Herbicidal activity Glycine max: 0 (herbicidal effect of not less than 0% by weight and less than 10% by weight)

## COC=C(Cn1nc(-c2ccccc2)cc1SC)C(=O)OC [Compound 37]
Echinochloa spp.
  Herbicidal activity Echinochloa spp.: 3 (herbicidal effect of not less than 50% by weight and less than 70% by weight)
[1]
  Herbicidal activity Oryza sativa: 0 (herbicidal effect of not less than 0% by weight and less than 10% by weight)
[2]
  Herbicidal activity Triticum aestivum: 0 (herbicidal effect of not less than 0% by weight and less than 10% by weight)
Soybean (Glycine max) [3]
  Herbicidal activity Glycine max: 0 (herbicidal effect of not less than 0% by weight and less than 10% by weight)
Stellaria media [4]
  Herbicidal activity Stellaria media: 5 (herbicidal effect of not less than 90% by weight)
Setaria viridis [5]
  Herbicidal activity Setaria viridis: 4 (herbicidal effect of not less than 70% by weight and less than 90% by weight)
Digitaria adscendens [6]
  Herbicidal activity Digitaria adscendens: 4 (herbicidal effect of not less than 70% by weight and less than 90% by weight)
Chenopodium album [7]
  Herbicidal activity Chenopodium album: 5 (herbicidal effect of not less than 90% by weight)
Scirpus juncoides
  Herbicidal activity Scirpus juncoides: 3 (herbicidal effect of not less than 50% by weight and less than 70% by weight)
Ammannia multiflora
  Herbicidal activity Ammannia multiflora: 3 (herbicidal effect of not less than 50% by weight and less than 70% by weight)
Monochoria vaginalis
  Herbicidal activity Monochoria vaginalis: 3 (herbicidal effect of not less than 50% by weight and less than 70% by weight)
Stellaria media [8]
  Herbicidal activity Stellaria media: 5 (herbicidal effect of not less than 90% by weight)
Setaria viridis [9]
  Herbicidal activity Setaria viridis: 5 (herbicidal effect of not less than 90% by weight)
Digitaria adscendens [10]
  Herbicidal activity Digitaria adscendens: 5 (herbicidal effect of not less than 90% by weight)
Chenopodium album [11]
  Herbicidal activity Chenopodium album: 4 (herbicidal effect of not less than 70% by weight and less than 90% by weight)
[12]
  Herbicidal activity Triticum aestivum: 0 (herbicidal effect of not less than 0% by weight and less than 10% by weight)
Soybean (Glycine max) [13]
  Herbicidal activity Glycine max: 0 (herbicidal effect of not less than 0% by weight and less than 10% by weight)

## COC=C(Cn1nc(-c2cc(Cl)cc(Cl)c2)cc1C)C(=O)OC [Compound 11]
Echinochloa spp.
  Herbicidal activity Echinochloa spp.: 3 (herbicidal effect of not less than 50% by weight and less than 70% by weight)
[1]
  Herbicidal activity Oryza sativa: 0 (herbicidal effect of not less than 0% by weight and less than 10% by weight)
[2]
  Herbicidal activity Triticum aestivum: 0 (herbicidal effect of not less than 0% by weight and less than 10% by weight)
Soybean (Glycine max) [3]
  Herbicidal activity Glycine max: 0 (herbicidal effect of not less than 0% by weight and less than 10% by weight)
Stellaria media [4]
  Herbicidal activity Stellaria media: 4 (herbicidal effect of not less than 70% by weight and less than 90% by weight)
Setaria viridis [5]
  Herbicidal activity Setaria viridis: 4 (herbicidal effect of not less than 70% by weight and less than 90% by weight)
Digitaria adscendens [6]
  Herbicidal activity Digitaria adscendens: 4 (herbicidal effect of not less than 70% by weight and less than 90% by weight)
Chenopodium album [7]
  Herbicidal activity Chenopodium album: 4 (herbicidal effect of not less than 70% by weight and less than 90% by weight)
Scirpus juncoides
  Herbicidal activity Scirpus juncoides: 3 (herbicidal effect of not less than 50% by weight and less than 70% by weight)
Ammannia multiflora
  Herbicidal activity Ammannia multiflora: 3 (herbicidal effect of not less than 50% by weight and less than 70% by weight)
Monochoria vaginalis
  Herbicidal activity Monochoria vaginalis: 3 (herbicidal effect of not less than 50% by weight and less than 70% by weight)
Stellaria media [8]
  Herbicidal activity Stellaria media: 4 (herbicidal effect of not less than 70% by weight and less than 90% by weight)
Setaria viridis [9]
  Herbicidal activity Setaria viridis: 4 (herbicidal effect of not less than 70% by weight and less than 90% by weight)
Digitaria adscendens [10]
  Herbicidal activity Digitaria adscendens: 4 (herbicidal effect of not less than 70% by weight and less than 90% by weight)
Chenopodium album [11]
  Herbicidal activity Chenopodium album: 4 (herbicidal effect of not less than 70% by weight and less than 90% by weight)
[12]
  Herbicidal activity Triticum aestivum: 0 (herbicidal effect of not less than 0% by weight and less than 10% by weight)
Soybean (Glycine max) [13]
  Herbicidal activity Glycine max: 0 (herbicidal effect of not less than 0% by weight and less than 10% by weight)

## COC=C(Cn1nc(-c2ccccc2)c(Cl)c1C)C(=O)OC [Compound 12]
Echinochloa spp.
  Herbicidal activity Echinochloa spp.: 4 (herbicidal effect of not less than 70% by weight and less than 90% by weight)
[1]
  Herbicidal activity Oryza sativa: 0 (herbicidal effect of not less than 0% by weight and less than 10% by weight)
[2]
  Herbicidal activity Triticum aestivum: 0 (herbicidal effect of not less than 0% by weight and less than 10% by weight)
Soybean (Glycine max) [3]
  Herbicidal activity Glycine max: 1 (herbicidal effect of not less than 10% by weight and less than 30% by weight)
Stellaria media [4]
  Herbicidal activity Stellaria media: 5 (herbicidal effect of not less than 90% by weight)
Setaria viridis [5]
  Herbicidal activity Setaria viridis: 4 (herbicidal effect of not less than 70% by weight and less than 90% by weight)
Digitaria adscendens [6]
  Herbicidal activity Digitaria adscendens: 5 (herbicidal effect of not less than 90% by weight)
Chenopodium album [7]
  Herbicidal activity Chenopodium album: 5 (herbicidal effect of not less than 90% by weight)
Scirpus juncoides
  Herbicidal activity Scirpus juncoides: 4 (herbicidal effect of not less than 70% by weight and less than 90% by weight)
Ammannia multiflora
  Herbicidal activity Ammannia multiflora: 5 (herbicidal effect of not less than 90% by weight)
Monochoria vaginalis
  Herbicidal activity Monochoria vaginalis: 5 (herbicidal effect of not less than 90% by weight)
Stellaria media [8]
  Herbicidal activity Stellaria media: 4 (herbicidal effect of not less than 70% by weight and less than 90% by weight)
Setaria viridis [9]
  Herbicidal activity Setaria viridis: 4 (herbicidal effect of not less than 70% by weight and less than 90% by weight)
Digitaria adscendens [10]
  Herbicidal activity Digitaria adscendens: 5 (herbicidal effect of not less than 90% by weight)
Chenopodium album [11]
  Herbicidal activity Chenopodium album: 5 (herbicidal effect of not less than 90% by weight)
[12]
  Herbicidal activity Triticum aestivum: 0 (herbicidal effect of not less than 0% by weight and less than 10% by weight)
Soybean (Glycine max) [13]
  Herbicidal activity Glycine max: 0 (herbicidal effect of not less than 0% by weight and less than 10% by weight)
